Like-named read-outs stand apart in the source and are kept apart here.
Experiments:
[1] = acute toxicity in the mouse, intraperitoneal; type: in vivo, Souris; details: mouse, in vivo, ip, voie intrapéritonéale; for LD50 at 48 h: souris femelles, read-out: DL 50; for mortality at 48 h: read-out: Mortalité %
Excerpt: (§1) Les produits ont été administrés par voie intrapéritonéale à des souris femelles dont le poids variait de 18 à 30 g.
(§2) Les animaux injectés ont été maintenus dans une salle thermostatée, nourris et abreuvés à volonté.
(§3) La mortalité a été relevée à 1 heure, 4 heures, 24 heures et 48 heures.

souris femelles = test: acute toxicity in the mouse, intraperitoneal; type: in vivo; details: voie intrapéritonéale; for Mortalité en 1 heure / Mortalité en 48 h. / Mortalité en 48 heures: dead mice of the group
Excerpt: as §1, §2, §3

Souris = test: antireserpine activity: reserpine hypothermia; type: in vivo; details: réserpine 5 mg/kg i.p. 17 h before
Method: On note ensuite les températures témoins (réserpine), puis les températures 1, 2, 3 et 4 heures après l'administration des produits étudiés.
Les animaux sont répartis en lots de 4 animaux et reçoivent par voie intrapéritonéale la réserpine à une dose de 5 mg/kg. 17 heures après cette injection, on mesure la température corporelle de l'animal à l'aide d'une sonde thermocouple introduite dans le rectum; chaque lot reçoit ensuite la substance par voie intrapéritonéale. Le lot témoin reçoit la même quantité de solvant et par la même voie. La température corporelle est ensuite mesurée toutes les heures pendant 4 heures.
Les résultats sont rassemblés dans un tableau récapitulatif-où sont indiqués : • - la température moyenne pour chaque lot relevée 17 heures après l'injection de la réserpine, • - la moyenne des variations de température pour chaque lot relevées 1,2, 3 et 4 heures après l'injection de la substance étudiée, • - la somme des variations de températures pendant 4 heures, • - le pourcentage d'augmentation de la température pour chaque produit par rapport aux témoins.

[2] = ip, 4 h, product i.p. 150 mg/kg, read-out: % d'augmentation par rapport aux témoins
[3] = ip, 4 h, product i.p. 50 mg/kg, read-out: % d'augmentation par rapport aux témoins

Compound: c1ccc(C2=NOC3c4ccccc4Nc4ccccc4C23)cc1 (stereo not drawn) [compound 1, phényl-3 trihydro-3a,8,12b (dibenzo [b,f]isoxazolo [4,5-d])azépine]
- LD50 at 48 h [1]: > 100 mg/kg
- mortality at 48 h ([1]; 50 mg/kg): 0%
- mortality at 48 h ([1]; 100 mg/kg): 0%
- Mortalité en 1 heure (souris femelles; 50 mg/kg): 0
- Mortalité en 48 h. (souris femelles; 50 mg/kg): 0
- Mortalité en 1 heure (souris femelles; 100 mg/kg): 0
- Mortalité en 48 h. (souris femelles; 100 mg/kg): 0
- change in vivo at 15 mg/kg (Souris; ip, 4 h, product i.p. 15 mg/kg, read-out: % d'augmentation par rapport aux témoins): 45%
- variation de température T= 2h (Souris; product i.p. 15 mg/kg): +0,5
- variation de température T=3h (Souris; product i.p. 15 mg/kg): +0,4
- variation de température T=4h (Souris; product i.p. 15 mg/kg): +0,7

Compound: CC(CN(C)C)CN1c2ccccc2C2ON=C(c3ccccc3)C2c2ccccc21 (stereo not drawn) [compound 4, (méthyl-2 diméthylamino-3 propyl)-8 phényl-3 trihydro-3a, 8, 12b (dibenzo[b,f]-isoxazolo [4,5-d]) azépine]
- LD50 at 48 h [1]: 175 mg/kg
- mortality at 48 h ([1]; 100 mg/kg): 0%
- mortality at 48 h ([1]; 300 mg/kg): 100%
- Mortalité en 1 heure (souris femelles; 100 mg/kg): 0
- Mortalité en 48 h. (souris femelles; 100 mg/kg): 0
- Mortalité en 1 heure (souris femelles; 300 mg/kg): 4
- Mortalité en 48 h. (souris femelles; 300 mg/kg): 4

Compound: OCCN1CCN(CCCN2c3ccccc3C3ON=C(c4ccccc4)C3c3ccccc32)CC1 (stereo not drawn) [compound 5]
- LD50 at 48 h [1]: 125 mg/kg
- mortality at 48 h ([1]; 75 mg/kg): 20%
- mortality at 48 h ([1]; 125 mg/kg): 40%
- mortality at 48 h ([1]; 200 mg/kg): 100%
- mortality at 48 h ([1]; 250 mg/kg): 100%
- Mortalité en 1 heure (souris femelles; 75 mg/kg): 1
- Mortalité en 48 h. (souris femelles; 75 mg/kg): 1
- Mortalité en 1 heure (souris femelles; 125 mg/kg): 2
- Mortalité en 48 h. (souris femelles; 125 mg/kg): 2
- Mortalité en 1 heure (souris femelles; 200 mg/kg): 5
- Mortalité en 48 h. (souris femelles; 200 mg/kg): 5
- Mortalité en 1 heure (souris femelles; 250 mg/kg): 5
- Mortalité en 48 h. (souris femelles; 250 mg/kg): 5

Compound: c1ccc(C2=NN(c3ccccc3)C3c4ccccc4Nc4ccccc4C23)cc1 (stereo not drawn) [compound 6, diphényl-1,3 tétrahydro-1,3a,8,12b(dibenzo [b,d]pyrazolo[3,4-d])hazépine]
- LD50 at 48 h [1]: > 750 mg/kg
- mortality at 48 h ([1]; 500 mg/kg): 0%
- mortality at 48 h ([1]; 750 mg/kg): 0%
- Mortalité en 1 heure (souris femelles; 500 mg/kg): 0
- Mortalité en 48 h. (souris femelles; 500 mg/kg): 0
- Mortalité en 1 heure (souris femelles; 750 mg/kg): 0
- Mortalité en 48 h. (souris femelles; 750 mg/kg): 0
- change in vivo at 150 mg/kg (Souris; [2]): 80%
- variation de température T= 2h (Souris; product i.p. 150 mg/kg): +0,7
- variation de température T=3h (Souris; product i.p. 150 mg/kg): +0,6
- variation de température T=4h (Souris; product i.p. 150 mg/kg): +0,4

Compound: CN(C)CCCN1c2ccccc2C2C(c3ccccc3)=NN(c3ccccc3)C2c2ccccc21 (stereo not drawn) [compound 8, (y-diméthylaminopropyl)-8 diphênyl-1,3 tétrahydro-1,3a,8, 12b(dibenzo [b,f]pyrazolo [3,4-d])azépine]
- LD50 at 48 h [1]: > 250 mg/kg
- mortality at 48 h ([1]; 5 mg/kg): 0%
- mortality at 48 h ([1]; 50 mg/kg): 0%
- mortality at 48 h ([1]; 100 mg/kg): 0%
- mortality at 48 h ([1]; 150 mg/kg): 20%
- mortality at 48 h ([1]; 250 mg/kg): 0%
- Mortalité en 1 heure (souris femelles; 5 mg/kg): 0
- Mortalité en 48 h. (souris femelles; 5 mg/kg): 0
- Mortalité en 1 heure (souris femelles; 50 mg/kg): 0
- Mortalité en 48 h. (souris femelles; 50 mg/kg): 0
- Mortalité en 1 heure (souris femelles; 100 mg/kg): 0
- Mortalité en 48 h. (souris femelles; 100 mg/kg): 0
- Mortalité en 1 heure (souris femelles; 150 mg/kg): 1
- Mortalité en 48 h. (souris femelles; 150 mg/kg): 1
- Mortalité en 1 heure (souris femelles; 250 mg/kg): 0
- Mortalité en 48 h. (souris femelles; 250 mg/kg): 0

Compound: CC(CN(C)C)CN1c2ccccc2C2C(c3ccccc3)=NN(c3ccccc3)C2c2ccccc21 (stereo not drawn) [compound 9, (méthyl-2 diméthylamino-3 propyl)-8 diphényl-1,3 tétrahydro-1,3a, 8, 12b (dibenzo [b, f]pyrazolo [3,4-d])azépine]
- LD50 at 48 h [1]: > 300 mg/kg
- mortality at 48 h ([1]; 150 mg/kg): 0%
- mortality at 48 h ([1]; 300 mg/kg): 0%
- Mortalité en 1 heure (souris femelles; 150 mg/kg): 0
- Mortalité en 48 h. (souris femelles; 150 mg/kg): 0
- Mortalité en 1 heure (souris femelles; 300 mg/kg): 0
- Mortalité en 48 h. (souris femelles; 300 mg/kg): 0
- change in vivo at 50 mg/kg (Souris; [3]): 60%
- variation de température T= 2h (Souris; product i.p. 50 mg/kg): +0,8
- variation de température T=3h (Souris; product i.p. 50 mg/kg): +0,6
- variation de température T=4h (Souris; product i.p. 50 mg/kg): +0,1

Compound: c1ccc(-c2nn(-c3ccccc3)c3c2-c2ccccc2Nc2ccccc2-3)cc1 [compound 12, diphényl-1,3 dihydro-1,8 (dibenzo[b,f]pyrazolo[3,4-d]) azépine]
- LD50 at 48 h [1]: > 250 mg/kg
- mortality at 48 h ([1]; 125 mg/kg): 0%
- mortality at 48 h ([1]; 250 mg/kg): 0%
- Mortalité en 1 heure (souris femelles; 125 mg/kg): 0
- Mortalité en 48 h. (souris femelles; 125 mg/kg): 0
- Mortalité en 1 heure (souris femelles; 250 mg/kg): 0
- Mortalité en 48 h. (souris femelles; 250 mg/kg): 0
- change in vivo at 50 mg/kg (Souris; [3]): 10%
- variation de température T= 2h (Souris; product i.p. 50 mg/kg): +0,4
- variation de température T=3h (Souris; product i.p. 50 mg/kg): +0,3
- variation de température T=4h (Souris; product i.p. 50 mg/kg): +0,4

Compound: CN(C)CCCN1c2ccccc2-c2c(-c3ccccc3)nn(-c3ccccc3)c2-c2ccccc21 [compound 14, (γ-diméthylaminopropyl)-8-diphényl-1,3 dihydro-1,8 (dibenzo [b,f]pyrazolo [3,4-d])azépine]
- LD50 at 48 h [1]: 200 mg/kg
- mortality at 48 h ([1]; 50 mg/kg): 0%
- mortality at 48 h ([1]; 100 mg/kg): 0%
- mortality at 48 h ([1]; 250 mg/kg): 80%
- mortality at 48 h ([1]; 500 mg/kg): 100%
- Mortalité en 1 heure (souris femelles; 50 mg/kg): 0
- Mortalité en 48 h. (souris femelles; 50 mg/kg): 0
- Mortalité en 1 heure (souris femelles; 100 mg/kg): 0
- Mortalité en 48 h. (souris femelles; 100 mg/kg): 0
- Mortalité en 1 heure (souris femelles; 250 mg/kg): 2
- Mortalité en 48 h. (souris femelles; 250 mg/kg): 4
- Mortalité en 1 heure (souris femelles; 500 mg/kg): 3
- Mortalité en 48 h. (souris femelles; 500 mg/kg): 5
- change in vivo at 150 mg/kg (Souris; [2]): 40%
- variation de température T=1h (Souris; product i.p. 150 mg/kg): +1,5
- variation de température T= 2h (Souris; product i.p. 150 mg/kg): +0,6
- variation de température T=3h (Souris; product i.p. 150 mg/kg): +0,6
- variation de température T=4h (Souris; product i.p. 150 mg/kg): +0,1

Compound: CC(CN(C)C)CN1c2ccccc2-c2c(-c3ccccc3)nn(-c3ccccc3)c2-c2ccccc21 (stereo not drawn) [compound 15, (méthyl-2 diméthylamino-3 propyl)-8 diphényl 1,3 dihydro-1,8(dibenzo [b,f]pyrazolo [3 ,4-d]) azépine]
- LD50 at 48 h [1]: 175 mg/kg
- mortality at 48 h ([1]; 50 mg/kg): 0%
- mortality at 48 h ([1]; 100 mg/kg): 0%
- mortality at 48 h ([1]; 250 mg/kg): 80%
- mortality at 48 h ([1]; 300 mg/kg): 80%
- Mortalité en 1 heure (souris femelles; 50 mg/kg): 0
- Mortalité en 48 h. (souris femelles; 50 mg/kg): 0
- Mortalité en 1 heure (souris femelles; 100 mg/kg): 0
- Mortalité en 48 h. (souris femelles; 100 mg/kg): 0
- Mortalité en 1 heure (souris femelles; 250 mg/kg): 2
- Mortalité en 48 h. (souris femelles; 250 mg/kg): 4
- Mortalité en 1 heure (souris femelles; 300 mg/kg): 0
- Mortalité en 48 h. (souris femelles; 300 mg/kg): 4

Compound: c1ccc(-c2noc3c2-c2ccccc2Nc2ccccc2-3)cc1 [compound 16, phényl-3 (dibenzo [b,f]isoxazolo [4,5-d]) 8H azépine]
- LD50 at 48 h [1]: > 1000 mg/kg
- mortality at 48 h ([1]; 50 mg/kg): 0%
- mortality at 48 h ([1]; 100 mg/kg): 0%
- mortality at 48 h ([1]; 250 mg/kg): 20%
- mortality at 48 h ([1]; 500 mg/kg): 0%
- mortality at 48 h ([1]; 1000 mg/kg): 0%
- Mortalité en 1 heure (souris femelles; 50 mg/kg): 0
- Mortalité en 48 h. (souris femelles; 50 mg/kg): 0
- Mortalité en 1 heure (souris femelles; 100 mg/kg): 0
- Mortalité en 48 h. (souris femelles; 100 mg/kg): 0
- Mortalité en 1 heure (souris femelles; 250 mg/kg): 0
- Mortalité en 48 h. (souris femelles; 250 mg/kg): 1
- Mortalité en 1 heure (souris femelles; 500 mg/kg): 0
- Mortalité en 48 h. (souris femelles; 500 mg/kg): 0
- Mortalité en 1 heure (souris femelles; 1000 mg/kg): 0
- Mortalité en 48 heures (souris femelles; 1000 mg/kg): 0

Compound: (γ-diméthylaminopropyl)-8 phényl-1 (chloro-4' phényl)-3 tétrahydro-1,3a, 8,12b(dibenzo[b,f]pyrazolo [3,4-d])azépine [compound 11]
- DL 50 (souris femelles; souris femelles, 2880 min): >1000 mg/kg
- Mortalité % (souris femelles; 250 mg/kg, 2880 min): 0%
- Mortalité en 1 heure (souris femelles; 250 mg/kg): 0
- Mortalité en 48 h. (souris femelles; 250 mg/kg): 0
- Mortalité % (souris femelles; 450 mg/kg, 2880 min): 0%
- Mortalité en 1 heure (souris femelles; 450 mg/kg): 0
- Mortalité en 48 heures (souris femelles; 450 mg/kg): 0
- Mortalité % (souris femelles; 1000 mg/kg, 2880 min): 0%
- Mortalité en 1 heure (souris femelles; 1000 mg/kg): 0
- Mortalité en 48 heures (souris femelles; 1000 mg/kg): 0
- % d'augmentation par rapport aux témoins (Souris; product i.p. 150 mg/kg): 85%
- variation de température T= 2h (Souris; product i.p. 150 mg/kg): +0,4
- variation de température T=3h (Souris; product i.p. 150 mg/kg): +0,5
- variation de température T=4h (Souris; product i.p. 150 mg/kg): +0,7

From EP0063525A1, “Dibenzazepine tetracyclic derivatives, process for their preparation and pharmaceutical compositions containing them” (CENTRE NATIONAL DE LA RECHERCHE SCIENTIFIQUE (CNRS), priority 1981, dated 1982)
